Test results reported in paper PMC9686928, “10-mer and 9-mer WALK Peptides with Both Antibacterial and Anti-Inflammatory Activities” (Antibiotics, 2022).
In brackets after ≈: the same amount, converted by molar mass. Where no end group is shown, it is not given here.

How the values were obtained:
RAW264.7 cells = details: at the concentrations tested, 16 h
Method: (§2) Macrophage cells seeded in 96-well cell culture plates at a density of 3 × 10^4 cells/well were incubated for 24 h, followed by treatment with LPS or individual WALK peptides and subsequent incubation for 16 h. Cell viability was then assessed by the conventional MTT assay. Briefly, the medium in each well was replaced with 100 μL of RPMI medium containing MTT (500 μg/mL). After 2 h of incubation, the medium was discarded and the insoluble formazan in each well was dissolved in 100 μL of DMSO with shaking. The absorbance of the solution at 550 nm was measured using a spectrophotometric microplate reader to determine the percentage of cell viability relative to that of control cells.

human red blood cells = human red blood cells 10% v/v in PBS, 1 h; for MHC, minimal hemolytic concentration: lowest concentration showing 5% or more hemolysis, 1–64 μg/mL, A550, relative to 0.2% Triton X-100, triplicate; for percentage hemolysis: at 64 μg/mL, relative to 0.2% Triton X-100, average of three measurements
Method: Briefly, suspensions of human red blood cells (10% v/v in PBS) were treated for 1 h with various concentrations (1–64 μg/mL, two-fold serial dilutions) of peptides, followed by measurement of the absorbance of the supernatant at 550 nm. The relative attenuation was determined as the percentage of hemolysis compared to that of the blood suspension treated with 0.2% Triton X-100. The tests were performed in triplicate, and the average values of three independent measurements were recorded.

[1] = system: Escherichia coli ATCC 25922; test: microbe, parasite or virus in culture; type: cell-based; details: Gram-negative, broth microdilution, Luria-Bertani broth, 1–64 μg/mL two-fold serial dilutions, triplicate
Method: (§1) The antimicrobial activity of each peptide was assessed against four strains, including two Gram-positive (Bacillus subtilis ATCC 6633 and Staphylococcus aureus ATCC 6538p) and two Gram-negative bacteria (Escherichia coli ATCC 25922 and Shigella dysentariae ATCC 9752) cultured in Luria-Bertani broth media. Antibacterial susceptibility was determined as the MIC value, which was measured using the standard broth microdilution method as described previously. […] Two conventional antibiotics, ampicillin and kanamycin, were used as controls to confirm antibiotic susceptibility. The tests were performed in triplicate, and the MIC values that were reproduced twice or thrice in the three independent measurements were employed to calculate the GM value.

[2] = system: Staphylococcus aureus ATCC 6538p; test: microbe, parasite or virus in culture; type: cell-based; details: Gram-positive, broth microdilution, Luria-Bertani broth, 1–64 μg/mL two-fold serial dilutions, triplicate
Method: as §1

[3] = system: Shigella dysentariae ATCC 9752; test: microbe, parasite or virus in culture; type: cell-based; details: Gram-negative, broth microdilution, Luria-Bertani broth, 1–64 μg/mL two-fold serial dilutions, triplicate
Method: as §1

[4] = system: Bacillus subtilis ATCC 6633; test: microbe, parasite or virus in culture; type: cell-based; details: Gram-positive, broth microdilution, Luria-Bertani broth, 1–64 μg/mL two-fold serial dilutions, lowest concentration that completely inhibited growth, triplicate
Method: as §1

[5] = system: two Gram-positive and two Gram-negative bacterial strains; test: Antimicrobial assay, MICs over the four strains (geometric mean); type: cell-based, B. subtilis, S. aureus, E. coli, S. dysentariae; details: geometric mean of the MICs against the four strains
Method: as §1

[6] = system: LPS-stimulated J774A.1 cells; test: Nitric oxide (NO) production, Griess reaction assay; type: cell-based, murine; details: LPS 100 ng/mL 16 h; for inhibitory effect against NO production: peptides 8, 4 and 2 μM, pretreatment 5 min, nitrite by Griess
Method: NT, non-treated; LPS, lipopolysaccharides. (A) Cytotoxicity was assessed using the MTT assay. […] (B) Anti-inflammatory potential deduced by NO assay.
The macrophage cells were seeded (3 × 10^4 cells/well) and incubated in 96-well plates for 24 h, followed by pretreatments with the WALK peptides at designated concentrations for 5 min and subsequent stimulation with 100 ng/mL of LPS for 16 h. The nitrite concentration in the culture medium was determined using the Griess reaction assay. Briefly, the culture supernatant (100 μL) was mixed with an equal volume of Griess reagent (1% sulfanilamide, 0.1% N-1-naphthyl ethylenediamine) and incubated for 5 min. The absorbance of the resulting chromophoric azo-derivative molecules was measured at 550 nm using a microplate reader with a fresh culture medium as a blank. The amount of nitrite in each sample was determined using a standard curve generated using a range of dilutions of sodium nitrite solutions.

J774A.1 cells = details: peptides 8, 4 and 2 μM, 16 h
Method: (A) Cytotoxicity was assessed using the MTT assay. The cells were treated with lipopolysaccharides (LPS, 100 ng/mL) or peptides (8–2 μM, two-fold serial dilutions) for 16 h, followed by estimating the cell viability as the percentage of surviving cells compared to that of the control cells.
as §2

| Compound | cytotoxicity (MTT assay) (RAW264.7 cells) | MHC, minimal hemolytic concentration (human red blood cells) | MIC, E. coli [1] | MIC, S. aureus [2] | MIC, S. dysentariae [3] | MIC, B. subtilis [4] | GM, geometric mean of MICs [5] | inhibitory effect against NO production [6] | cytotoxicity (MTT assay) (J774A.1 cells) | percentage hemolysis (human red blood cells) | MIC ([1]; Escherichia coli, ATCC25922) | MIC ([2]; Staphylococcus aureus, ATCC6538P, read-out: MIC, S. aureus) | MIC ([3]; Shigella, ATCC9752, read-out: MIC, S. dysentariae) | MIC ([4]; Bacillus subtilis, ATCC6633, read-out: MIC, B. subtilis) | geometric mean MIC ([5]; read-out: GM, geometric mean of MICs) | NO inhibition at 8 μM ([6]; peptide 8 μM) |
| --- | --- | --- | --- | --- | --- | --- | --- | --- | --- | --- | --- | --- | --- | --- | --- | --- |
| KLLKWLLKW-NH2 [WALK243.05] | did not demonstrate significant cytotoxicity | 64 µg/mL | 2 µg/mL | 2 µg/mL | 16 µg/mL | 2 µg/mL | 3.4 µg/mL |  |  |  |  |  |  |  |  |  |
| KKLLKWLLKW-NH2 [WALK244.06] |  | 32 µg/mL | 16 µg/mL | 3 µg/mL | 16 µg/mL | 2 µg/mL | 6.3 µg/mL |  |  |  |  |  |  |  |  |  |
| KWLLKLLKW-NH2 [WALK243.09] |  | 64 µg/mL | 8 µg/mL | 4 µg/mL | 16 µg/mL | 4 µg/mL | 6.7 µg/mL |  |  |  |  |  |  |  |  |  |
| LKKWLKWLLK-NH2 [WALK244.07] |  | 32 µg/mL | 2 µg/mL | 2 µg/mL | 8 µg/mL | 2 µg/mL | 2.8 µg/mL | dose-dependent inhibitory effect | no significant cytotoxicity |  |  |  |  |  |  |  |
| LKWLLKWLKK-NH2 [WALK244.03] |  | 64 µg/mL | 8 µg/mL | 8 µg/mL | 32 µg/mL | 8 µg/mL | 11.3 µg/mL |  |  |  |  |  |  |  |  |  |
| KWLLKWLLK-NH2 [WALK243.02] | did not demonstrate significant cytotoxicity | 64 µg/mL | 4 µg/mL | 4 µg/mL | 16 µg/mL | 4 µg/mL | 5.7 µg/mL |  |  | 6.7% |  |  |  |  |  |  |
| CC1(C)S[C@@H]2[C@H](NC(=O)[C@H](N)c3ccccc3)C(=O)N2[C@H]1C(=O)O [Ampicillin, ampicillin, reference compound] |  |  |  |  |  |  |  |  |  |  | ≤ 1 µg/mL | ≤ 1 µg/mL | ≤ 1 µg/mL | ≤ 1 µg/mL | ≤ 1 µg/mL |  |
| KLLKWLKKWL-NH2 [WALK244.05] |  | 32 µg/mL | 2 µg/mL | 2 µg/mL | 4 µg/mL | 2 µg/mL | 2.4 µg/mL | dose-dependent inhibitory effect | no significant cytotoxicity |  |  |  |  |  |  | near-complete NO inhibition |
| WLKKWLKKLL-NH2 [WALK244.01] |  | 16 µg/mL | 2 µg/mL | 2 µg/mL | 2 µg/mL | ≤1 µg/mL | ≤1.7 µg/mL |  |  |  |  |  |  |  |  |  |
| LKWLKWLLK-NH2 [WALK243.06] | did not demonstrate significant cytotoxicity | 32 µg/mL | 2 µg/mL | 2 µg/mL | 8 µg/mL | 2 µg/mL | 2.8 µg/mL |  |  |  |  |  |  |  |  |  |
| WLLKWLKKL-NH2 [WALK243.01] |  | 32 µg/mL | 4 µg/mL | 4 µg/mL | 8 µg/mL | 4 µg/mL | 4.8 µg/mL |  |  |  |  |  |  |  |  |  |
| WLKKLLKWL-NH2 [WALK243.08] |  | 8 µg/mL | 2 µg/mL | 2 µg/mL | 2 µg/mL | 2 µg/mL | 2.0 µg/mL |  |  |  |  |  |  |  |  |  |
| LKKWLKWLL-NH2 [WALK243.07] |  | 16 µg/mL | 2 µg/mL | 2 µg/mL | 4 µg/mL | 2 µg/mL | 2.4 µg/mL |  |  |  |  |  |  |  |  |  |
| WLKKLLKWLK-NH2 [WALK244.08] |  | 8 µg/mL | 2 µg/mL | ≤1 µg/mL | 4 µg/mL | 2 µg/mL | ≤2.0 µg/mL |  |  |  |  |  |  |  |  |  |
| LKWLKKLLKW-NH2 [WALK244.10] |  | 32 µg/mL | 8 µg/mL | 2 µg/mL | 8 µg/mL | 2 µg/mL | 4.0 µg/mL |  |  |  |  |  |  |  |  |  |
| LKWLLKWLK-NH2 [WALK243.03] |  | 32 µg/mL | 8 µg/mL | 4 µg/mL | 16 µg/mL | 4 µg/mL | 6.7 µg/mL |  |  |  |  |  |  |  |  |  |
| KWLKKLLKWL-NH2 [WALK244.09] |  | 8 µg/mL | 2 µg/mL | 2 µg/mL | 2 µg/mL | ≤1 µg/mL | ≤1.7 µg/mL |  |  | 80.7% |  |  |  |  |  |  |
| NC[C@H]1O[C@H](O[C@H]2[C@H](O)[C@@H](O[C@H]3O[C@H](CO)[C@@H](O)[C@H](N)[C@H]3O)[C@H](N)C[C@@H]2N)[C@H](O)[C@@H](O)[C@@H]1O [Kanamycin, kanamycin, reference compound] |  |  | 4 µg/mL (≈ 8.26 µM) | 4 µg/mL (≈ 8.26 µM) | 8 µg/mL (≈ 16.5 µM) | 4 µg/mL (≈ 8.26 µM) | 4.8 µg/mL |  |  |  |  |  |  |  |  |  |
| KWLLKWLKKL-NH2 [WALK244.02] |  | 32 µg/mL | 2 µg/mL | 2 µg/mL | 8 µg/mL | 2 µg/mL | 2.8 µg/mL | dose-dependent inhibitory effect | no significant cytotoxicity |  |  |  |  |  |  |  |
